Assay results: patent US20110263423A1, “Plant Health Composition” (BASF SE, priority 2008, published 2011)

Key:
Type in all cases: in vivo
[1] = system: Soybeans (M-SOY 6001 RR); test: Soybean field trial Brazil, ternary mixture, Colby synergism (Example 7); details: soybean M-SOY 6001 RR, Ia 40, epoxiconazol 40, pyraclostrobin 65 g a.i./ha
Protocol: Soybeans were grown in 2008 at the CEDUP “Caetano Vieira da Costa” in Sao José do Cerrito, Santa […], Brazil. The variety M-SOY 6001 RR was planted in 2007, 11 Nov., at a seeding rate of 300.000 plants per ha. Row spacing was 50 cm. The trial was setup as a randomized bloc design with 4 replications. Plot size was 12.5 m^2. Fungicide treatments were applied at BBCH GS 70-79 (pods reached 15-20 mm of final […]). The fungicides were used as formulations. Compound Ia was applied as an EC formulation (62.5 g/L-EC) at 0.64 L/ha (40 g ai/ha). […] The adjuvant DASH HC was added to the spray tank with 0.3% (v/v). Finally, compound Ia was applied in a mixture together with epoxiconazol and pyraclostrobin forming a ternary mixture according to the present invention, using a coformulation of all three compounds (50 g/L of compound Ia+50 g/L of epoxiconazol+81 g/L of pyraclostrobin-EC). This formulation was sprayed at a rate of 0.8 […] compound […] epoxiconazol+65 g a.i./ha pyraclostrobin). The formulations were diluted in water. Total spray volume for foliar application was 150 L/ha. The trial was conducted under low disease pressure. […] Plots were harvested at maturity of the soybean crop and the yield (thousand grain weight) was determined (table 11). The efficacy in yield increase was calculated as % increase of the Thousand Grain Weight (TGW) by the treatments compared to the untreated control. […]

[2] = system: Maize (Dekalb RX940); test: Maize field trial, Dinuba 2008 (Example 5)
Protocol: Maize was grown in 2008 in a field trial at the BASF experimental station in Dinuba, 10181 Avenue 416, Calif., U.S.A. The variety Dekalb RX940 was planted at a seeding rate of 10 plants/m^2. Four rows per plot were planted with a row spacing of 0.75 m. The trial was setup as a randomized bloc design with 5 replications, each. Plot size was 43 m^2. Compound Ia was used as an EC formulation (62.5 g a.i./L) with a dose rate of 0.8 L per hectar (50 g a.i./ha). The formulation was applied in a total spray volume of 400 L/ha. Compound Ia was sprayed at a growth stage 51/55 (BBCH) with a tractor mounted spray boom with VS11003 spray nozzles at 3 bar spray pressure.
No disease symptoms were visible at the application time and no symptoms were detected at later stages.
Green leaf area, as an indicator of plant vigor, was assessed beginning of ripening by estimating the green leaf area in 10 randomly chosen plants per plot.
At maturity the grain was harvested and the grain yield per plot, as an indicator of plant yield, was determined (kg/plot). Finally, the grain yield per hectare, as an aditional indicator of plant yield, was calculated (dt/ha). Furthermore, the Thousand Grain Weight (TGW) was determined in the second trial (Crow C300 42).

[3] = system: spring wheat (cv. Passat); test: Spring wheat pot trial, optimal water supply (Example 1)
Protocol: Mitcherlich pots of known weight were filled with 5.5 kg of sandy dry soil (pH 6.8) and fertilized (P, K and Mg) to optimal growing conditions. The culture was spring wheat (cv. Passat); 12 plants per pot. The experiment was conducted with 6 replications in a vegetation hall. Experiments were carried out under semi controlled conditions at very low disease-pressure with insignificant infection rates, protected from any undesired rain or water impact. The water consumption of each pot was calculated on the basis of the recorded measurements of the weight of the pots prior to each irrigation event up to the defined set point.
Nitrogen fertilizer (totally 1.75 g N/pot) was added in equal amounts at 3 stages to allow optimal growth conditions throughout the life cycle. All plants/pots were grown at optimal water supply by watering 2-3 times a day to 60% of the water holding capacity of the soil.
Compound Ia (62.5 g/L, 2 L in 400 L water/ha) was applied at growth stage 39/49 (BBCH scale), which is an EC formulation of compound Ia. Control plants were not treated.
Plant Height, as an indicator of plant vigor, was measured after heading. At maturity of the plants the grain, as an indicator of yield, was harvested and uniformly dried to 5% moisture content. Straw yield, as an another indicator of plant yield, was also determined and the number of halms with ear per pot was counted at maturity. Number of grains per pot was counted after harvest. Thousand Grain Weight (TGW), as yet another indicator of plant yield, was calculated based on grain yield per pot and number of grains per pot.

[4] = system: spring wheat (cv. Passat); test: Spring wheat pot trial, moderate drought stress (Example 3)
Protocol: Spring wheat (cv. Passat) was cultivated in Mitcherlich pots as described above in example 1. The experiment was conducted with 6 replications in a vegetation hall. Experiments were carried out under semi controlled conditions at very low disease-pressure with insignificant infection rates, protected from any undesired rain or water impact. The water consumption of each pot was calculated on the basis of the recorded measurements of the weight of the pots prior to each irrigation event up to the defined set point. Pots without crop coverage were used to estimate the evaporation of the soil.
Nitrogen fertilizer (totally 1.75 g N/pot) was added in equal amounts at 3 stages to allow optimal growth conditions throughout the life cycle. All plants/pots were grown at optimal water supply by watering 2-3 times a day to 60% of the water holding capacity of the soil until growth stage 55 (BBCH). Then, pots were only watered to 30% of the maximum water holding capacity of the soil to apply moderate drought stress. Compound Ia (62.5 g/l, 2 L in 400 L water/ha) was applied at growth stage 39/49 (BBCH scale), which is an EC formulation of comound Ia. Control plants were not treated.
At maturity of the plants the grain was harvested and uniformly dried to 5% moisture content. Number of grains per pot was counted after harvest. Thousand Grain Weight (TGW), as an indicator of plant yield, was calculated based on grain yield per pot and number of grains per pot. Transpiration was calculated on the basis of the amount of water added to the respective pots and the estimated soil evaporation. Water use efficiency, as an indicator of drought stress tolerance of a plant, was calculated based on the respective transpiration per pot.

[5] = moderate drought stress, 2 L/ha EC at BBCH 39/49

## Cn1cc(C(=O)Nc2ccccc2-c2cc(F)c(F)c(F)c2)c(C(F)F)n1 [Compound Ia, N-(3′,4′,5′-trifluorobiphenyl-2-yl)-3-difluoromethyl-1-methyl-1H-pyrazole-4-carboxamide]
[1]
  Observed efficacy (% increase of TGW vs untreated control): 0%
[1]; BBCH 70-79
  TGW: 153 g
[2]; 50 g a.i./ha
  Grain yield, increase as % of untreated: (+4.5%)
  TGW, increase as % of untreated: (+3.3%)
[2]; 50 g a.i./ha at BBCH 51/55
  Grain yield: 154.7 dt/ha
  TGW: 317.0 g
[2]; 50 g a.i./ha at BBCH 51/55, beginning of ripening
  % Green leaf area: 49.0%
[2]; 50 g a.i./ha, listed as compound Ia
  Grain yield, increase as % of untreated: 4.5%
[3]; 2 L/ha EC at BBCH 39/49
  Grain yield/pot, change vs untreated control: (+6%)
  Number of halms with ear/pot, change vs untreated control: (+16%)
  Plant height, change vs untreated control: (+2%)
  Straw yield: 70.0 g/pot
  Straw yield, change vs untreated control: (+6%)
  TGW (Thousand Grain Weight): 32.0 g
  TGW, change vs untreated control: (+2%)
[3]; 2 L/ha EC at BBCH 39/49, at maturity
  Number of halms with ear/pot: 37.5
[3]; 2 L/ha EC at BBCH 39/49, grain dried to 5% moisture
  Grain yield/pot: 74.2 g/pot
[3]; EC 62.5 g/L, 2 L in 400 L water/ha at BBCH 39/49, measured after heading
  Plant height: 76.2 cm
[4]; moderate drought stress
  Thousand Grain Weight, change vs untreated control: (+4%)
  Transpiration, change vs untreated control: (−4%)
  Water use efficiency, change vs untreated control: (+3%)
[4]; moderate drought stress (30% water holding capacity from BBCH 55), 2 L/ha EC at BBCH 39/49
  Transpiration: 26.5 L water/pot
[4]; [5]
  Thousand Grain Weight: 31.2 g
  Water use efficiency: 2.02 g grain/L water
